Columns and labels:
furin protease [1] = target: T1, furin protease (Homo sapiens, UniProt P09958); test: Secretion of anti-EGFR antibody by 293T/anti-EGFR cells with furin inhibitor; assay type: cell-based; conditions: furin inhibitor added vs absent (FIG. 2A)
T1 construct: rich furin protease in Golgi can effectively cleave a furin cleavage site; endogenous in cells; host or cells: 293T/anti-EGFR (HEK-293 derived) cells
Excerpt: (§1) (A) To detect the concentration of anti-EGFR antibody of 293T/anti-EGFR cell culture, Dec-RVKR-CMK was used as furin inhibitor. The Y axis represents concentration of the secreted anti-EGFR antibody, while the X axis represents cell groups. […] (B) To detect anti-EGFR Ab-RAKR-mB7 expression of 293T/anti-EGFR on cell membrane, FACS technology combined with FITC conjugated anti-human IgG antibody was used. The filled region represents 293T cells as control group; the solid line represents 293T/anti-EGFR cell without furin inhibitor; the dashed line represents 293T/anti-EGFR cell with furin inhibitor.
Take a humanized anti-EGFR antibody, for example; we transfected an anti-EGFR Ab-RAKR-mB7 gene into a human embryonic kidney cell with a Lentivirus vector to construct a 293T/anti-EGFR cell line. In the absence of a furin inhibitor (Dec-RVKR-CMK), said 293T/anti-EGFR can continuously secrete anti-EGFR antibody into extracellular matrix (see FIG. 2A).

furin protease [2] = target: T1, furin protease; test: FACS detection of anti-EGFR Ab-RAKR-mB7 on 293T/anti-EGFR cell membrane with furin inhibitor; assay type: cell-based; conditions: 293T/anti-EGFR cells, furin inhibitor added, FITC anti-human IgG, FACS (FIG. 2B)
Excerpt: as §1
The gene was transfected into mammalian cells (human embryonic kidney cells, HEK-293). Under normal conditions, rich furin protease in Golgi can effectively cleave a furin cleavage site ([…]) between anti-EGFR antibody and mB7 to allow secretion of the anti-EGFR antibody into an extracellular matrix. When furin inhibitor (DEC-RVKR-CMK) was added, to inhibit the activity of the furin protease, the anti-EGFR Ab-RAKR-mB7 would not be cleaved by furin protease and would be stably anchored on the cell membrane surface. Then, FITC-conjugated anti-human antibody was used to label the anti-EGFR Ab-RAKR-mB7 on the cell membranes. By using FACS, the cells with high expression of anti-EGFR Ab-RAKR-mB7 on their cell membranes can be rapidly and high-throughput sorted. […]

furin protease [3] = target: T2, furin protease (Cricetulus griseus, UniProt A0A9J7CGZ7); test: FACS detection of PCD-GB-RAKR-mB7 on LEC1/PCD-GB cell membrane with furin inhibitor; assay type: cell-based, Chinese Hamster; conditions: LEC1/PCD-GB cells, furin inhibitor added, anti-myc antibody, FACS (FIG. 6B)
T2 construct: rich furin protease in Golgi can effectively cleave furin cleavage site; endogenous in cells; host or cells: LEC1/PCD-GB (CHO Lec1) cells
T2 sequence (A0A9J7CGZ7 27-794): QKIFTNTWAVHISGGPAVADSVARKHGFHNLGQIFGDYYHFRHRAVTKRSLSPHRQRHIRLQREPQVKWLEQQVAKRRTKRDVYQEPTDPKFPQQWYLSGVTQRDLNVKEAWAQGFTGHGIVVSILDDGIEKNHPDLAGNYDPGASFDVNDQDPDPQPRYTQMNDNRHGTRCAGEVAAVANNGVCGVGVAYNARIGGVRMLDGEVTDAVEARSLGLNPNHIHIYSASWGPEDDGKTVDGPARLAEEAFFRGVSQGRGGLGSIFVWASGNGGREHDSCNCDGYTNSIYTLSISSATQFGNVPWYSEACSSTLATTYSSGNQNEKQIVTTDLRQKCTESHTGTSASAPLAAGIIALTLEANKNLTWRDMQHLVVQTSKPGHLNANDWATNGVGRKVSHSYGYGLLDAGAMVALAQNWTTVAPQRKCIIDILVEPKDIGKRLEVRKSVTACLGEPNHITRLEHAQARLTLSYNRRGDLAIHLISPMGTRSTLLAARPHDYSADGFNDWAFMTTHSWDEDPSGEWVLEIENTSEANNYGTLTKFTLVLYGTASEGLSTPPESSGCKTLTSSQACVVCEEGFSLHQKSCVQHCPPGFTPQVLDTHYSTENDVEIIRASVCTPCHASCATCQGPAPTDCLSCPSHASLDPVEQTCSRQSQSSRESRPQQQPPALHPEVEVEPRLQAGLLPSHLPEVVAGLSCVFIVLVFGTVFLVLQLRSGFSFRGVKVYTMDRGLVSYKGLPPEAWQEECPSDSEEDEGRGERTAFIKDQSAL
Excerpt: (A) To detect the expression of PCD-GB recombinant protein in LEC1 and LEC1/PCD-GB cells, Western blot technique accompanied with mouse anti-myc antibody and goat anti-mouse IgG-HRP was used. (B) Furin inhibitor (Dec-RVKR-CMK) was used to inhibit the furin activity of LEC1 and LEC1/PCD-GB cells. Then, to detect the expression of PCD-GB-RAKR-mB7 on cell membrane, FACS technology accompanied with mouse anti-myc antibody and goat anti-mouse IgG-HRP was used. The filled region represents LEC1 cells as control group; solid line represents LEC1/PCD-GB cells without furin inhibitor; dashed line represents LEC1/PCD-GB cells with furin inhibitor. (C) The X axis represents the expression of PCD-GB-RAKR-mB7 on cell membrane (mean relative fluorescence intensity). The Y axis represents the production of PCD-GB stored in lysosomes. Each dot represents a single individual LEC1/PCD-GB cell.
Example 2 exemplifies a perforin-granzyme fusion protein (PCD-GB) which is expressed in lysosome. […] The gene was transfected into mammalian cells (Chinese Hamster Ovary cells, LEC1). Under normal conditions, rich furin protease in Golgi can effectively cleave furin cleavage site ([…]) between PCD-GB and mB7 so that PCD-GB would be stored in lysosome. […]

T1 sequence (P09958 108-794): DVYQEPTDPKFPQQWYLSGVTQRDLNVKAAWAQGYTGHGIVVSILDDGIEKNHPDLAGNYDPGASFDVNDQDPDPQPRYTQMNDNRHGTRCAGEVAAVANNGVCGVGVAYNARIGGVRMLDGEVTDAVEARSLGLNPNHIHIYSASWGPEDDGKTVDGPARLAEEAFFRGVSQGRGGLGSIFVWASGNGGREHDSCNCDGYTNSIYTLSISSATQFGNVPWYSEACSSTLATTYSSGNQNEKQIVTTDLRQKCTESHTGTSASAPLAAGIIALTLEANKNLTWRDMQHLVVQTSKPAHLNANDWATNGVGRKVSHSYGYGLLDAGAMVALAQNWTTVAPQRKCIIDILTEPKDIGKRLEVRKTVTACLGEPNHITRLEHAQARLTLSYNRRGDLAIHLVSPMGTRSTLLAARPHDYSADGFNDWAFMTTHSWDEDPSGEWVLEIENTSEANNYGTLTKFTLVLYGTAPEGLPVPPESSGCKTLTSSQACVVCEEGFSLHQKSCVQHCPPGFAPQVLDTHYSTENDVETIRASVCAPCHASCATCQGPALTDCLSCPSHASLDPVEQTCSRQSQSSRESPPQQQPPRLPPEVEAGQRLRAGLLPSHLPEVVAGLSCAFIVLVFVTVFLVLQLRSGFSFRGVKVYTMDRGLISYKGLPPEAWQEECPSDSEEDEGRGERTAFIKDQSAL

**Q.** For Dec-RVKR-CMK, which “secretion of anti-EGFR antibody” value (furin protease [1]) is on record?
**A.** decreased secretion of anti-EGFR antibody

**Q.** What about the “expression of anti-EGFR Ab-RAKR-mB7 on cell membrane” value (furin protease [2]) of the same substance?
**A.** expression of anti-EGFR Ab-RAKR-mB7 was on the cell membrane

**Q.** What about the “PCD-GB-RAKR-mB7 detected on cell membrane” value (furin protease [3]) of the same substance?
**A.** few PCD-GB-RAKR-mB7 would be detected on the LEC1/PCD-GB cell membrane
